This note sets out measurements from patent US20100286183A1, “SPIROHYDANTOIN COMPOUNDS AND METHODS FOR THE MODULATION OF CHEMOKINE RECEPTOR ACTIVITY” (priority 2005, published 2010).

For orientation: IC50 means the concentration at which inhibition is half-maximal.

Structures can show the parent of a compound that is named as a salt.

In the first assay the test system is HIV-1Ba-L. In words: HIV-1 Replication in PM1 Cell Culture Assay. In kind it is cell-based. Particulars: Human immunodeficiency virus 1, 144 h; PM1 cell line infected with HIV-1Ba-L, 6 days, reverse transcriptase assay of supernatant; read-out: IC50 μM HIV-1 PM1. The source says:
C:HIV-1 Replication in PM1 Cell Culture Assay
Evaluation of the in vitro anti-HIV-1Ba-L activity in PM1 cell line: PM1 cell line which is a continuous CD4+ T-cell clone originally derived from a neoplastic T-cell line is used. PM1 is characterized by a unique susceptibility to a wide range of HIV-1 isolates, including primary and biologically pure macrophage-tropic isolates. Drugs are serially diluted (9 concentrations in duplicates) and added to wells of a flat bottom 96-well plate. PM1 cells are infected with HIV-1Ba-L at a multiplicity of infection of 0.5 for a period of 3 hours. Unbound viruses are removed by washing the cells two times through centrifugation followed by seeding the cells into a 96-well plate in the presence of the serially diluted test compounds with final concentrations ranging from 0.00256 to 5000 ηM. Thereafter, plates were incubated for a period of 6 days at 37° C. in a CO2 incubator. Thereafter, culture supernatants are collected at day 6 and stored at −80° C. for viral quantification. The amount of virus present in cell culture supernatants is quantified using a reverse transcriptase assay. The concentration causing 50% inhibition of viral replication (IC50) is calculated using Graph Pad Prism software.
For `CC(C)(C)OC(=O)N1C[C@H](CN2CCC3(CC2)NC(=O)N(Cc2ccc(Br)cc2)C3=O)[C@@H](c2ccccc2)C1` [Compound 1, (3S,4S)-3-[3-(4-Bromo-benzyl)-2,4-dioxo-1,3,8-triaza-spiro[4.5]dec-8-ylmethyl]-4-phenyl-pyrrolidine-1-carboxylic acid tert-butyl ester], the IC50 was less than 1 µM.
Turning to `COc1ccc(CN2C(=O)NC3(CCN(C[C@H]4CN(C(=O)OC(C)(C)C)C[C@@H]4c4ccccc4)CC3)C2=O)cc1` [Compound 2, (3S,4S)-3-[3-(4-Methoxy-benzyl)-2,4-dioxo-1,3,8-triaza-spiro[4.5]dec-8-ylmethyl]-4-phenyl-pyrrolidine-1-carboxylic acid tert-butyl ester], the IC50 was less than 1 µM.
With `CC(C)(C)OC(=O)N1C[C@H](CN2CCC3(CC2)NC(=O)N(Cc2ccc(S(C)(=O)=O)cc2)C3=O)[C@@H](c2ccccc2)C1` [Compound 3, (3S,4S)-3-[3-(4-Methanesulfonyl-benzyl)-2,4-dioxo-1,3,8-triaza-spiro[4.5]dec-8-ylmethyl]-4-phenyl-pyrrolidine-1-carboxylic acid tert-butyl ester], the IC50 is less than 1 µM.

Still in this assay, the particulars now being: Human immunodeficiency virus 1, PM1, 144 h, read-out: IC50 μM HIV-1 PM1.
Turning to `CCC(=O)N1C[C@H](CN2CCC3(CC2)NC(=O)N(Cc2ccc(S(C)(=O)=O)cc2)C3=O)[C@@H](c2ccccc2)C1` [Compound 15, 3-(4-Methanesulfonyl-benzyl)-8-((3S,4S)-4-phenyl-1-propionyl-pyrrolidin-3-ylmethyl)-1,3,8-triaza-spiro[4.5]decane-2,4-dione hydrochloride], the IC50 is less than 1 µM.
Turning to `CC1(C(=O)N2C[C@H](CN3CCC4(CC3)NC(=O)N(Cc3ccc(S(C)(=O)=O)cc3)C4=O)[C@@H](c3ccccc3)C2)CC1` [Compound 16, 3-(4-Methanesulfonyl-benzyl)-8-[(3S,4S)-1-(1-methyl-cyclopropanecarbonyl)-4-phenyl-pyrrolidin-3-ylmethyl]-1,3,8-triaza-spiro[4.5]decane-2,4-dione hydrochloride], the concentration for half-maximal inhibition (IC50) was less than 1 µM.
The same measure, in the same setting: under `CS(=O)(=O)c1ccc(CN2C(=O)NC3(CCN(C[C@H]4CN(C(=O)CC5CC5)C[C@@H]4c4ccccc4)CC3)C2=O)cc1` [Compound 17, 8-[(3S,4S)-1-(2-Cyclopropyl-acetyl)-4-phenyl-pyrrolidin-3-ylmethyl]-3-(4-methanesulfonyl-benzyl)-1,3,8-triaza-spiro[4.5]decane-2,4-dione hydrochloride] stands less than 1 µM.
On the same count and under the same terms, under `CS(=O)(=O)c1ccc(CN2C(=O)NC3(CCN(C[C@H]4CN(C(=O)C5CCCC5)C[C@@H]4c4ccccc4)CC3)C2=O)cc1` [Compound 18, 8-((3S,4S)-1-Cyclopentanecarbonyl-4-phenyl-pyrrolidin-3-ylmethyl)-3-(4-methanesulfonyl-benzyl)-1,3,8-triaza-spiro[4.5]decane-2,4-dione hydrochloride] stands less than 1 µM.
Same read-out and setting: the result for `CS(=O)(=O)c1ccc(CN2C(=O)NC3(CCN(C[C@H]4CN(C(=O)C5CCC(F)(F)CC5)C[C@@H]4c4ccccc4)CC3)C2=O)cc1` [Compound 19, 8-[(3S,4S)-1-(4,4-Difluoro-cyclohexanecarbonyl)-4-phenyl-pyrrolidin-3-ylmethyl]-3-(4-methanesulfonyl-benzyl)-1,3,8-triaza-spiro[4.5]decane-2,4-dione hydrochloride] reads less than 1 µM; that for `CS(=O)(=O)c1ccc(CN2C(=O)NC3(CCN(C[C@H]4CN(C(=O)c5ccccc5F)C[C@@H]4c4ccccc4)CC3)C2=O)cc1` [Compound 20, 8-[(3S,4S)-1-(2-Fluoro-benzoyl)-4-phenyl-pyrrolidin-3-ylmethyl]-3-(4-methanesulfonyl-benzyl)-1,3,8-triaza-spiro[4.5]decane-2,4-dione hydrochloride], less than 1 µM.
Turning to `CS(=O)(=O)c1ccc(CN2C(=O)NC3(CCN(C[C@H]4CN(C(=O)c5ccccc5Cl)C[C@@H]4c4ccccc4)CC3)C2=O)cc1` [Compound 21, 8-[(3S,4S)-1-(2-Chloro-benzoyl)-4-phenyl-pyrrolidin-3-ylmethyl]-3-(4-methanesulfonyl-benzyl)-1,3,8-triaza-spiro[4.5]decane-2,4-dione hydrochloride], the IC50 was less than 1 µM.
Still for that read-out and setting: the result for `CN(C)S(=O)(=O)c1ccc(CN2C(=O)NC3(CCN(C[C@H]4CN(C(=O)C5CCC(F)(F)CC5)C[C@@H]4c4ccccc4)CC3)C2=O)cc1` [Compound 22, 4-{8-[(3S,4S)-1-(4,4-Difluoro-cyclohexanecarbonyl)-4-phenyl-pyrrolidin-3-ylmethyl]-2,4-dioxo-1,3,8-triaza-spiro[4.5]dec-3-ylmethyl}-N,N-dimethyl-benzenesulfonamide hydrochloride] reads less than 1 µM.
On to `CC(C)(C)CC(=O)N1C[C@H](CN2CCC3(CC2)NC(=O)N(Cc2ccc(S(C)(=O)=O)cc2)C3=O)[C@@H](c2ccccc2)C1` [Compound 23, 8-[(3S,4S)-1-(3,3-Dimethyl-butyryl)-4-phenyl-pyrrolidin-3-ylmethyl]-3-(4-methanesulfonyl-benzyl)-1,3,8-triaza-spiro[4.5]decane-2,4-dione hydrochloride], for which the IC50 is less than 1 µM.
For the molecule `CCCN1C(=O)N(CC)C2(CCN(C[C@H]3CN(C(=O)CC(C)(C)C)C[C@@H]3c3ccccc3)CC2)C1=O` [Compound 24, 8-[(3S,4S)-1-(3,3-Dimethyl-butyryl)-4-phenyl-pyrrolidin-3-ylmethyl]-1-ethyl-3-propyl-1,3,8-triaza-spiro[4.5]decane-2,4-dione hydrochloride], the IC50 is less than 1 µM.
